Measurements as given in PubChem BioAssay (NCI).
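Compound exposure: 48 hours, 5 concentrations, 96-well plates. GI50 = concentration required for 50% inhibition of growth. TGI: total growth inhibition.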

Key:
Experiment in all cases: inhibition of tumour cell growth, NCI panel, 48 h
HCC-2998 colon = tested on: HCC-2998 colon
HOP-92 NSCLC = tested on: HOP-92 NSCLC
K-562 leukemia = tested on: K-562 leukemia
DU-145 prostate = tested on: DU-145 prostate
T-47D breast = tested on: T-47D breast
SN12C renal = tested on: SN12C renal
OVCAR-3 ovarian = tested on: OVCAR-3 ovarian
U251 CNS = tested on: U251 CNS
SK-MEL-2 melanoma = tested on: SK-MEL-2 melanoma
OVCAR-5 ovarian = tested on: OVCAR-5 ovarian
786-0 renal = tested on: 786-0 renal
RPMI-8226 leukemia = tested on: RPMI-8226 leukemia
LOX IMVI melanoma = tested on: LOX IMVI melanoma
SNB-19 CNS = tested on: SNB-19 CNS
SR leukemia = tested on: SR leukemia
HS 578T breast = tested on: HS 578T breast
RXF 393 renal = tested on: RXF 393 renal
HCT-15 colon = tested on: HCT-15 colon
SK-MEL-5 melanoma = tested on: SK-MEL-5 melanoma
HOP-62 NSCLC = tested on: HOP-62 NSCLC
TK-10 renal = tested on: TK-10 renal
MCF7 breast = tested on: MCF7 breast
MOLT-4 leukemia = tested on: MOLT-4 leukemia
NCI-H522 lung = tested on: NCI-H522 lung
PC-3 prostate = tested on: PC-3 prostate
A498 renal = tested on: A498 renal
HCT-116 colon = tested on: HCT-116 colon
ACHN renal = tested on: ACHN renal
SF-539 CNS = tested on: SF-539 CNS
KM12 colon = tested on: KM12 colon
OVCAR-8 ovarian = tested on: OVCAR-8 ovarian
A549 NSCLC = tested on: A549 NSCLC
NCI-H460 lung = tested on: NCI-H460 lung
SNB-75 CNS = tested on: SNB-75 CNS
OVCAR-4 ovarian = tested on: OVCAR-4 ovarian
MDA-MB-435 = tested on: MDA-MB-435
NCI-H226 lung = tested on: NCI-H226 lung
HL-60(TB) leukemia = tested on: HL-60(TB) leukemia
MALME-3M melanoma = tested on: MALME-3M melanoma
SF-295 CNS = tested on: SF-295 CNS
CCRF-CEM leukemia = tested on: CCRF-CEM leukemia
BT-549 breast = tested on: BT-549 breast
CAKI-1 renal = tested on: CAKI-1 renal
IGROV1 ovarian = tested on: IGROV1 ovarian
SF-268 CNS = tested on: SF-268 CNS
SK-OV-3 ovarian = tested on: SK-OV-3 ovarian
UACC-62 melanoma = tested on: UACC-62 melanoma
NCI/ADR-RES ovarian = tested on: NCI/ADR-RES ovarian
SW-620 colon = tested on: SW-620 colon
MDA-MB-231 breast = tested on: MDA-MB-231 breast
UACC-257 melanoma = tested on: UACC-257 melanoma
COLO 205 colon = tested on: COLO 205 colon
M14 melanoma = tested on: M14 melanoma
HT29 colon = tested on: HT29 colon
UO-31 renal = tested on: UO-31 renal
NCI-H23 lung = tested on: NCI-H23 lung
SK-MEL-28 melanoma = tested on: SK-MEL-28 melanoma

## C/C(=C1\SC(=NCc2cccs2)NC1=O)c1ccc2ncccc2c1
HCC-2998 colon
  GI50: > 25 µM
  TGI: > 25 µM
HOP-92 NSCLC
  GI50: 7.08 µM
  TGI: > 25 µM
K-562 leukemia
  GI50: 8.71 µM
  TGI: > 25 µM
DU-145 prostate
  GI50: > 25 µM
  TGI: > 25 µM
T-47D breast
  GI50: 15.1 µM
  TGI: > 25 µM
SN12C renal
  GI50: 12.6 µM
  TGI: > 25 µM
OVCAR-3 ovarian
  GI50: 18.1 µM
  TGI: > 25 µM
U251 CNS
  GI50: 11.7 µM
  TGI: > 25 µM
SK-MEL-2 melanoma
  GI50: > 25 µM
  TGI: > 25 µM
OVCAR-5 ovarian
  GI50: > 25 µM
  TGI: > 25 µM
786-0 renal
  GI50: > 23.1 µM
  TGI: > 25 µM
RPMI-8226 leukemia
  GI50: 13 µM
  TGI: > 25 µM
LOX IMVI melanoma
  GI50: 13.8 µM
  TGI: > 25 µM
SNB-19 CNS
  GI50: 13.6 µM
  TGI: > 25 µM
SR leukemia
  GI50: 7.06 µM
  TGI: > 21.7 µM
HS 578T breast
  GI50: 9.15 µM
  TGI: > 25 µM
RXF 393 renal
  GI50: > 25 µM
  TGI: > 25 µM
HCT-15 colon
  GI50: 10.9 µM
  TGI: > 25 µM
SK-MEL-5 melanoma
  GI50: 8.21 µM
  TGI: > 25 µM
HOP-62 NSCLC
  GI50: 21.8 µM
  TGI: > 25 µM
TK-10 renal
  GI50: > 25 µM
  TGI: > 25 µM
MCF7 breast
  GI50: 11.7 µM
  TGI: > 25 µM
MOLT-4 leukemia
  GI50: 9.56 µM
  TGI: > 25 µM
NCI-H522 lung
  GI50: 8.56 µM
  TGI: > 25 µM
PC-3 prostate
  GI50: 12.7 µM
  TGI: > 25 µM
A498 renal
  GI50: 13.5 µM
  TGI: > 25 µM
HCT-116 colon
  GI50: 11 µM
  TGI: > 25 µM
ACHN renal
  GI50: 18.7 µM
  TGI: > 25 µM
SF-539 CNS
  GI50: 9.5 µM
  TGI: > 25 µM
KM12 colon
  GI50: 13.1 µM
  TGI: > 25 µM
OVCAR-8 ovarian
  GI50: 14.7 µM
  TGI: > 25 µM
A549 NSCLC
  GI50: 12.2 µM
  TGI: > 25 µM
NCI-H460 lung
  GI50: 9.27 µM
  TGI: > 25 µM
SNB-75 CNS
  GI50: 3.93 µM
  TGI: > 23.3 µM
OVCAR-4 ovarian
  GI50: 18.1 µM
  TGI: > 25 µM
MDA-MB-435
  GI50: 7.55 µM
  TGI: > 25 µM
NCI-H226 lung
  GI50: 21.5 µM
  TGI: > 25 µM
HL-60(TB) leukemia
  GI50: 9.36 µM
  TGI: > 25 µM
MALME-3M melanoma
  GI50: > 25 µM
  TGI: > 25 µM
SF-295 CNS
  GI50: 11.4 µM
  TGI: > 25 µM
CCRF-CEM leukemia
  GI50: 10.2 µM
  TGI: > 25 µM
BT-549 breast
  GI50: > 25 µM
  TGI: > 25 µM
CAKI-1 renal
  GI50: 11.1 µM
  TGI: > 25 µM
IGROV1 ovarian
  GI50: > 25 µM
  TGI: > 25 µM
SF-268 CNS
  GI50: 18 µM
  TGI: > 25 µM
SK-OV-3 ovarian
  GI50: > 25 µM
  TGI: > 25 µM
UACC-62 melanoma
  GI50: > 19.3 µM
  TGI: > 25 µM
NCI/ADR-RES ovarian
  GI50: 20.1 µM
  TGI: > 25 µM
SW-620 colon
  GI50: 10.1 µM
  TGI: > 25 µM
MDA-MB-231 breast
  GI50: 7.24 µM
  TGI: > 25 µM
UACC-257 melanoma
  GI50: > 25 µM
  TGI: > 25 µM
COLO 205 colon
  GI50: 12.4 µM
  TGI: > 25 µM
M14 melanoma
  GI50: 13.9 µM
  TGI: > 25 µM
HT29 colon
  GI50: 10.9 µM
  TGI: > 25 µM
UO-31 renal
  GI50: 10.1 µM
  TGI: > 25 µM
NCI-H23 lung
  GI50: 22.2 µM
  TGI: > 25 µM
SK-MEL-28 melanoma
  GI50: > 25 µM
  TGI: > 25 µM
